Source: ChEMBL document CHEMBL3045121, “Synthesis of an Antifungal Naphthoquinone Isolated fromRhinacanthus nasutus(Acanthaceae)” (1995)
In brackets after ≈: the same amount, converted by molar mass.

System: Pyricularia oryzae
Experiment: Inhibition of spore germination of Magnaporthe oryzae
Type: functional
Conditions: read-out: ED50 (the source's name)

| SMILES | EC50 [µg/mL] |
| --- | --- |
| CC1(C)COC2=C(C1)C(=O)C(=O)c1ccccc12 [RHINACANTHONE] | 0.4 (≈ 1.65 µM) |
| C/C=C(\C)CC/C=C(\C)C(=O)OCC(C)(C)CC1=C(O)C(=O)c2ccccc2C1=O [RHINACANTHIN C] | 0.2 (≈ 0.487 µM) |
